Results taken from article PMC9822058, “In Vitro Evaluation of α-amylase and α-glucosidase Inhibition of 2,3-Epoxyprocyanidin C1 and Other Constituents from Pterocarpus erinaceus Poir” (Molecules, 2022).
Like-named read-outs stand apart in the source and are kept apart here.

How the values were obtained:
[1] = tested on: α-glucosidase from Saccharomyces cerevisiae; assay: α-glucosidase inhibitory assay (PNPG substrate); assay type: biochemical; conditions: for α-glucosidase (% inh. at 50 µg/mL): highest test concentration; for α-glucosidase inhibitory potential (in words): within the tested concentrations
Experimental: The α-glucosidase inhibitory activity was evaluated according to the method described previously. 50 µL of phosphate buffer (0.01 M pH 6.9), 10 µL of different concentrations of compound or extract solution, 50 µL of α-glucosidase from Saccharomyces cerevisiae in phosphate buffer (0.01 M pH 6.0) and PNPG (4-N-nitrophenyl-α-D-glucopyranoside) 25 µL in phosphate buffer (0.01 M pH 6.9) were mixed in a 96-well microplate. The solution was then incubated for 20 min at 37 °C.

[2] = biological target: α-amylase from Bacillus licheniformis (Bacillus licheniformis, UniProt P06278); assay: biochemical; assay type: biochemical; conditions: for inhibition at 50 µg/mL: read-out: α-amylase (% inh. at 50 µg/mL); for α-amylase inhibitory potential (in words): within the tested concentrations
Chain of α-amylase from Bacillus licheniformis (P06278 30-512): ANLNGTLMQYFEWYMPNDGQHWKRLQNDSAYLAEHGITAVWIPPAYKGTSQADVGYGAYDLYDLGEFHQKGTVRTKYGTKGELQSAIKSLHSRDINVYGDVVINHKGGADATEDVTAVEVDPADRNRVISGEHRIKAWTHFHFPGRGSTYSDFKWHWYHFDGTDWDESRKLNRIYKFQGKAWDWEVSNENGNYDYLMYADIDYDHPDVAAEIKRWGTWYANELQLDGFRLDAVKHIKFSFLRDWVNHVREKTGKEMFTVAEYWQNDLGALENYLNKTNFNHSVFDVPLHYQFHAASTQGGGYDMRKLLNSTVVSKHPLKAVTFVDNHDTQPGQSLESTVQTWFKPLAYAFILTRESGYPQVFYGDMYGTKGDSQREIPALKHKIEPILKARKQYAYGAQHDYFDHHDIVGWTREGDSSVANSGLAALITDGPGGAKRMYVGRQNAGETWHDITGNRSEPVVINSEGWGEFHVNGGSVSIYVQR
Experimental: The α-amylase inhibitory activity was evaluated by using the starch– iodine method with some modifications. The enzyme α-amylase from Bacillus licheniformis was used and enzyme solution was prepared with phosphate buffer (20 mM pH = 6.9 phosphate buffer prepared with 6 mM NaCl); then, 50 µL of α-amylase and 25 µL of different concentrations of compound or extract solutions were mixed in a 96-well microplate. The mixture was pre-incubated for 10 min at 37 °C; then, 50 µL of starch solution (0.05%) was added and incubated for 10 min at 37 °C. Following incubation, the reaction was completed by adding HCl (0.1 M, 25 µL) and Lugol (100 µL) solutions, and the absorbance was recorded at 565 nm.

[3] = tested on: STZ-induced diabetes; conditions: doses of 20 and 40 mg/kg; cited from earlier work
[4] = read-out: α-amylase IC50 (converted)

Row | Structure (SMILES) | α-glucosidase (% inh. at 50 µg/mL) [1] [%] | inhibition at 50 µg/mL [2] [%] | α-glucosidase IC50 [1] [µg/mL] | IC50 [2, 4] [µM] | antidiabetic potential in STZ-induced diabetic rats [3] | α-glucosidase inhibitory potential (in words) [1] | IC50 [2] [µM] | α-amylase inhibitory potential (in words) [2]
1 | C[C@H]1O[C@H](O[C@H]2[C@H](O)[C@@H](O)[C@@H](O[C@H]3[C@H](O)[C@@H](O)C(O)O[C@@H]3CO)O[C@@H]2CO)[C@H](O)[C@@H](O)[C@@H]1N[C@H]1C=C(CO)[C@@H](O)[C@H](O)[C@H]1O (some centres unmarked) [Acarbose, reference compound] | 81.7 ± 0.8 | 72.5 ± 1.5 | – | – | – | – | – | –
2 | Oc1cc(O)c2c(c1)OC1(c3ccc(O)c(O)c3)OC1C2c1c(O)cc(O)c2c1OC(c1ccc(O)c(O)c1)C(O)C2c1c(O)cc(O)c2c1OC(c1ccc(O)c(O)c1)C(O)C2 (centres unmarked) [compound 1, 2,3-Epoxyprocyanidin C1] | 53.4 ± 1.6 | 34.3 ± 0.7 | 41.6 ± 1.0 | > 57.8 | – | – | – | –
3 | C[C@H]1C(=O)CC[C@@H]2[C@]1(C)CC[C@H]1[C@@]2(C)CC[C@@]2(C)[C@@H]3CC(C)(C)CC[C@]3(C)CC[C@]12C [compound 2, friedelin] | 32.1 ± 0.1 | 21.5 ± 0.6 | >50 | – | antidiabetic potential | relatively low | > 117 | relatively low
4 | C=C(C)[C@@H]1CC[C@]2(CO)CC[C@]3(C)[C@H](CC[C@@H]4[C@@]5(C)CC[C@H](O)C(C)(C)[C@@H]5CC[C@]43C)[C@@H]12 [compound 3, betulin] | 28.5 ± 0.3 | 19.3 ± 0.4 | >50 | – | – | relatively low | > 113 | relatively low
5 | COc1ccc(C(C)C(=O)c2ccc(O)cc2O)cc1 (centres unmarked) [compound 4, angolensin] | 54.1 ± 1.3 | 33.7 ± 0.5 | 43.4 ± 0.5 | > 184 | – | – | – | –
6 | COc1cc(O)c2c(=O)c(-c3ccc(O)cc3)coc2c1 [compound 5, 7-methoxygenistein] | 50.6 ± 1.2 | 32.2 ± 1 | 47.6 ± 0.9 | – | – | – | > 176 | –
7 | COc1ccc2c(=O)c(-c3ccc(O)cc3)coc2c1 [compound 6, 7-methoxydaidzein] | 51.8 ± 0.9 | 34.2 ± 0.5 | 46.3 ± 0.2 | > 186 | – | – | – | –
8 | COc1c(-c2ccc(O)c(O)c2)oc2cc(O)cc(O)c2c1=O [compound 7, 3-O-methyl quercetin] | 54.0 ± 1.0 | 50.2 ± 2 | 39.5 ± 1.2 | 152 | – | – | – | –
9 | O=C(O)[C@H]1O[C@@H](Oc2cc(O)c3c(=O)cc(-c4ccc(O)cc4)oc3c2)[C@H](O)[C@@H](O)[C@@H]1O [compound 8, apigenin 7-O-glucoronide] | 55.2 ± 1.1 | 50.9 ± 0.8 | 40.9 ± 1.3 | 109 | – | – | – | –
10 | O=C1C[C@@H](c2ccc(O)cc2)Oc2cc(O[C@@H]3O[C@H](CO)[C@@H](O)[C@H](O)[C@H]3O)cc(O)c21 [compound 9, naringenin 7-O-β-D-glucopyranoside] | 53.7 ± 0.4 | 50.5 ± 1.2 | 44.8 ± 0.6 | – | – | – | – | –
11 | COc1cc2c(=O)oc3c(OC)c(OC4OC(COC5OC(C)C(O)C(O)C5O)C(O)C(O)C4O)cc4c(=O)oc(c1OC)c2c34 (centres unmarked) [compound 10, 3,3′,4-Trimethoxy-4′-rutinosylellagic acid] | 51.8 ± 0.9 | 45.4 ± 0.3 | 45.0 ± 0.8 | > 76.6 | – | – | – | –
12 | COc1cc2c(=O)oc3c(OC)c(OC4OC(COC5OC(C)C(OC(C)=O)C(OC(C)=O)C5OC(C)=O)C(OC(C)=O)C(OC(C)=O)C4OC(C)=O)cc4c(=O)oc(c1OC)c2c34 (centres unmarked) [compound 11, 3,3′,4-Trimethoxy-4′-hexaacetylrutinosylellagic acid] | 50.7 ± 0.2 | 43.5 ± 0.6 | 47.5 ± 0.4 | > 55.3 | – | – | – | –
